Test results reported in ChEMBL document CHEMBL1132871, “Antimycobacterial activity of ionic fullerene derivatives” (Bioorg Med Chem Lett, 2000).
In brackets after ≈: the same amount, converted by molar mass.

Tests used:
[1] = Solubility in DMSO:water(9:1); format: physicochemical; settings: read-out: S
[2] = test system: Mycobacterium avium; experiment: The compound was tested for its ability to inhibit the growth of Mycobacterium avium.; format: functional
[3] = test system: Mycobacterium tuberculosis; experiment: The compound was tested for its ability to inhibit the growth of Mycobacterium tuberculosis strain H37Rv; format: functional
[4] = test system: Mycobacterium tuberculosis; experiment: The compound was tested for its ability to inhibit the growth of Mycobacterium tuberculosis strain H6/99; format: functional
[5] = test system: Mycobacterium avium; experiment: The compound was tested for its ability to inhibit the growth of Mycobacterium avium; Resistant; format: functional, organism-based
[6] = test system: Mycobacterium tuberculosis; experiment: The compound was tested for its ability to inhibit the growth of Mycobacterium tuberculosis strain H37Rv; Sensitive; format: functional, organism-based

SMILES | solubility [1] | MIC [2] | MIC [3] | MIC [4] | MIC [5] | MIC [6]
COCCOCCOCC1N(C)CC23C4=C5C6=C7c8c9c%10c%11c%12c%13c%14c(c2c2c%15c%16c%17c%18c%19c(c5c5c%20c%21c%22c%23c(c8C%22C65)c%10c5c%11c6c%13c8c(c%15%14)c%16c%10c%18c%11c(c%20%19)c%21c%13c%23c5c5c%13c%11c%10c8c65)C%17C42)C%12C9C713 (stereo not given) | 15 µM (≈ 13.7 µg/mL) | – | – | – | – | –
COCCOCCOCC1C23C4=C5C6=C7C8c9c(c%10c%11c%12c%13c%14c%15c(c4c4c%16c%17c%18c%19c%20c(c6c6c%21c%22c(c%23c9c%11c9c%23c%11c%22c%22c(c%20%21)c%19c%19c%17c%17c(c%15%16)c%14c%14c%12c9c9c%11c%22c%19c%17c%149)C68)C5C4%18)C2C%10%13)C73C[N+]1(C)C.[I-] (stereo not given) | 15 µM | 500 µg/mL | 50 µg/mL | 5 µg/mL | – | –
COCCOCCOCC1CCCN1C (stereo not given) | – | > 500 µg/mL | > 500 µg/mL | > 500 µg/mL | – | –
COCCOCCOCC[N+]1(C)CC23C4=C5C6=C7c8c9c%10c%11c%12c%13c%14c(c2c2c%15c%16c%17c%18c%19c(c5c5c%20c%21c%22c%23c(c8C%22C65)c%10c5c%11c6c%13c8c(c%15%14)c%16c%10c%18c%11c(c%20%19)c%21c%13c%23c5c5c%13c%11c%10c8c65)C%17C42)C%12C9C73C1COCCOCCOC.[I-] (stereo not given) | 95 µM | 50 µg/mL | 50 µg/mL | 5 µg/mL | – | –
CO[C@H]1/C=C/O[C@@]2(C)Oc3c(C)c(O)c4c(O)c(c(/C=N/N5CCN(C)CC5)c(O)c4c3C2=O)NC(=O)/C(C)=C\C=C\[C@H](C)[C@H](O)[C@@H](C)[C@@H](O)[C@@H](C)[C@H](OC(C)=O)[C@@H]1C | – | – | – | – | Resistant | Sensitive
NNC(=O)c1ccncc1 | – | – | – | – | Resistant | Sensitive
COCCOCCOCC[N+]1(C)CCCC1COCCOCCOC.[I-] (stereo not given) | – | > 500 µg/mL | > 500 µg/mL | > 500 µg/mL | – | –
COCCOCCOCCN1CCCC1 | – | > 500 µg/mL | > 500 µg/mL | > 500 µg/mL | – | –
COCCOCCOCC1CCC[N+]1(C)C.[I-] (stereo not given) | – | > 500 µg/mL | > 500 µg/mL | > 500 µg/mL | – | –
COCCOCCOCC[N+]1(C)CCCC1.[I-] | – | > 500 µg/mL | > 500 µg/mL | > 500 µg/mL | – | –
COCCOCCOCC[N+]1(C)CC23C4=C5C6=C7c8c9c%10c%11c%12c%13c%14c(c2c2c%15c%16c%17c%18c%19c(c5c5c%20c%21c%22c%23c(c8C%22C65)c%10c5c%11c6c%13c8c(c%15%14)c%16c%10c%18c%11c(c%20%19)c%21c%13c%23c5c5c%13c%11c%10c8c65)C%17C42)C%12C9C73C1.[I-] (stereo not given) | 43 µM | 500 µg/mL | 50 µg/mL | 500 µg/mL | – | –
COCCOCCOCCN1CC23C4=C5C6=C7c8c9c%10c%11c%12c%13c%14c(c2c2c%15c%16c%17c%18c%19c(c5c5c%20c%21c%22c%23c(c8C%22C65)c%10c5c%11c6c%13c8c(c%15%14)c%16c%10c%18c%11c(c%20%19)c%21c%13c%23c5c5c%13c%11c%10c8c65)C%17C42)C%12C9C73C1 (stereo not given) | 15 µM (≈ 13.7 µg/mL) | – | – | – | – | –
COCCOCCOCCN1CC23C4=C5C6=C7c8c9c%10c%11c%12c%13c%14c(c2c2c%15c%16c%17c%18c%19c(c5c5c%20c%21c%22c%23c(c8C%22C65)c%10c5c%11c6c%13c8c(c%15%14)c%16c%10c%18c%11c(c%20%19)c%21c%13c%23c5c5c%13c%11c%10c8c65)C%17C42)C%12C9C73C1COCCOCCOC (stereo not given) | 30 µM (≈ 31.4 µg/mL) | 50 µg/mL (≈ 47.7 µM) | 500 µg/mL (≈ 477 µM) | 500 µg/mL (≈ 477 µM) | – | –
COCCOCCOCCN1CCCC1COCCOCCOC (stereo not given) | – | > 500 µg/mL | > 500 µg/mL | > 500 µg/mL | – | –
